What all share (assay): KINOMEscan competition binding
In one test the target is ADCK3 (Homo sapiens, UniProt Q8NI60). Particulars: read-out: %Inh ADCK3.
The next test addresses T1, AURKA (Homo sapiens, UniProt O14965).
T1 sequence (O14965 1-403): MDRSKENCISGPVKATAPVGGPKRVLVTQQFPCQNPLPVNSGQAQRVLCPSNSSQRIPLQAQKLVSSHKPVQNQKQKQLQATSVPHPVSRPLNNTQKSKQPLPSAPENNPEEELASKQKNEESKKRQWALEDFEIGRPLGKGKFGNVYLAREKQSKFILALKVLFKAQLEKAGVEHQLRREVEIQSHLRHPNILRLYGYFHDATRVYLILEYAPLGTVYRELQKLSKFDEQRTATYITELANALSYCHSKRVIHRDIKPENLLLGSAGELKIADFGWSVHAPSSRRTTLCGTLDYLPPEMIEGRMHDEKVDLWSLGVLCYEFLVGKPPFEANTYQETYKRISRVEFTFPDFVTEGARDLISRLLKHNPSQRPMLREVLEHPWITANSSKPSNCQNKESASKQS
The settings on record: read-out: %Inh AURKA.

In a further test the target is CAMK1 (Homo sapiens, UniProt Q14012). The settings on record: read-out: %Inh CAMK1.
The target in the next test is CDK9 (Homo sapiens, UniProt P50750). The settings on record: read-out: %Inh CDK9.
For another test, the target named is T2, CTK (Homo sapiens, UniProt P42679).
T2 sequence (P42679 1-507): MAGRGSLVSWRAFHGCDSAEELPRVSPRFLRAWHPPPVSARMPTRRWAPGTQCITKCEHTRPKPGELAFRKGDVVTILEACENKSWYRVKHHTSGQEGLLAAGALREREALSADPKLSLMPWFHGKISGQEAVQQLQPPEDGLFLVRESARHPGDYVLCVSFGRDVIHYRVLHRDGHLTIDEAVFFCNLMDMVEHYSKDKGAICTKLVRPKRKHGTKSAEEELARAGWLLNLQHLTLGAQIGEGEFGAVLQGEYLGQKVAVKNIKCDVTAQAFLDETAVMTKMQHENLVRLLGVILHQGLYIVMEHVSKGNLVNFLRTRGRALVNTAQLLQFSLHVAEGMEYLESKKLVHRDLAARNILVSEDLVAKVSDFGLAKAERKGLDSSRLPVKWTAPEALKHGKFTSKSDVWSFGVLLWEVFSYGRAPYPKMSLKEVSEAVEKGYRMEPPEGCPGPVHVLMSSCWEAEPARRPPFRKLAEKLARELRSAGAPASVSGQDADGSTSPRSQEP
The settings on record: read-out: %Inh CTK.

For a further test, the target named is T3, GRK3 (Homo sapiens, UniProt P35626).
T3 sequence (P35626 1-688): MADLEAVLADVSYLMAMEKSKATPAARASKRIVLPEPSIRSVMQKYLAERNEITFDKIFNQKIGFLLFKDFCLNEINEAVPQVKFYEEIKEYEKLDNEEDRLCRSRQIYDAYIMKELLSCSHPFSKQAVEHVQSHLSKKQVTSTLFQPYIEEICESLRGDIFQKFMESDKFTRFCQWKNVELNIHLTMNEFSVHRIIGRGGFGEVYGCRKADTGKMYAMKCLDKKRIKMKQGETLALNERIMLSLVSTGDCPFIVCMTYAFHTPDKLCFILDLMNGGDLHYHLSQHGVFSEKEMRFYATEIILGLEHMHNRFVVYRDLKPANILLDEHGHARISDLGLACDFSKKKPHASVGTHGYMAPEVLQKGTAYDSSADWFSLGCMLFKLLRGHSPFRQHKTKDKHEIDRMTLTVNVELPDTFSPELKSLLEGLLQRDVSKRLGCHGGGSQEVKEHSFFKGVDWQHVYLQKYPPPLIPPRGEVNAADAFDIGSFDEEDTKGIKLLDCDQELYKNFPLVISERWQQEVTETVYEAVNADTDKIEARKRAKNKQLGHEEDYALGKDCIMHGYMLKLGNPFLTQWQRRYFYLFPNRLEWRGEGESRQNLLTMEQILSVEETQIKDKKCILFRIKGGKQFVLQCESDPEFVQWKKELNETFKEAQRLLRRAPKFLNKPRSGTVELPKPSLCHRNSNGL
Particulars: read-out: %Inh GRK3.

The target of a further test is HCK (Homo sapiens, UniProt P08631). Particulars: read-out: %Inh HCK.
The target in test [1] is JAK2(JH1domain-catalytic) (Homo sapiens, UniProt O60674). The settings on record: read-out: %Inh JAK2(JH1domain-catalytic).

The structures appear in SMILES notation.

Sequence of CDK9 (P50750 whole entry): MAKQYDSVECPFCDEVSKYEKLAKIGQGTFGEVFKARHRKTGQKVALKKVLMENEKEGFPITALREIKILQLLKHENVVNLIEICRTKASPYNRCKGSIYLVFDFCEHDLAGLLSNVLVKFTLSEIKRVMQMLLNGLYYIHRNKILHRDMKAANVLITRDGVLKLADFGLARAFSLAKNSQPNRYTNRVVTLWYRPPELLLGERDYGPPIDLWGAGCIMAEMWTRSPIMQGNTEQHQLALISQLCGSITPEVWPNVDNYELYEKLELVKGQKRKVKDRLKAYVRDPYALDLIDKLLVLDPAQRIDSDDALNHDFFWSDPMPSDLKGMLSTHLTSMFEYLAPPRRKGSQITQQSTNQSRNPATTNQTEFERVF
Sequence of ADCK3 (Q8NI60 163-647): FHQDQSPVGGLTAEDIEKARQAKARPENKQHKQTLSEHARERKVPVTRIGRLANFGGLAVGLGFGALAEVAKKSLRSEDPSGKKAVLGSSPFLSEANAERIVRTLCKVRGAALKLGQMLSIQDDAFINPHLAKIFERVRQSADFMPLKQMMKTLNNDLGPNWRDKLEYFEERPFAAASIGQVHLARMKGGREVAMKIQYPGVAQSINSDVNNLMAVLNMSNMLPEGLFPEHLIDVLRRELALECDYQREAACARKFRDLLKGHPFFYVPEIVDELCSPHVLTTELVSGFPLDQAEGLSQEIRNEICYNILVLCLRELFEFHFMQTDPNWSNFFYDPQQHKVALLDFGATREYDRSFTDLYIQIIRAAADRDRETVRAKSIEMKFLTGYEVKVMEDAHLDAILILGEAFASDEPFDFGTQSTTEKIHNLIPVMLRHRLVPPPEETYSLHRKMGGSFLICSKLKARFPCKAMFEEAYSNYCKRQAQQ
Sequence of JAK2(JH1domain-catalytic) (O60674 840-1132 limits assumed): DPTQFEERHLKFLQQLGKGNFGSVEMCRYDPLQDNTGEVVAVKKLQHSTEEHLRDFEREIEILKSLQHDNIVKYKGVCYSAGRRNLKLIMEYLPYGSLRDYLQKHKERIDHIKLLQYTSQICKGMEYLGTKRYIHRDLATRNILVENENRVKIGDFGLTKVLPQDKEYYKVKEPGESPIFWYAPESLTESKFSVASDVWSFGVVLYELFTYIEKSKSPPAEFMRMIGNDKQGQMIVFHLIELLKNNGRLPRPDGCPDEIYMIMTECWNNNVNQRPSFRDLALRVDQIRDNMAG
Sequence of HCK (P08631 whole entry): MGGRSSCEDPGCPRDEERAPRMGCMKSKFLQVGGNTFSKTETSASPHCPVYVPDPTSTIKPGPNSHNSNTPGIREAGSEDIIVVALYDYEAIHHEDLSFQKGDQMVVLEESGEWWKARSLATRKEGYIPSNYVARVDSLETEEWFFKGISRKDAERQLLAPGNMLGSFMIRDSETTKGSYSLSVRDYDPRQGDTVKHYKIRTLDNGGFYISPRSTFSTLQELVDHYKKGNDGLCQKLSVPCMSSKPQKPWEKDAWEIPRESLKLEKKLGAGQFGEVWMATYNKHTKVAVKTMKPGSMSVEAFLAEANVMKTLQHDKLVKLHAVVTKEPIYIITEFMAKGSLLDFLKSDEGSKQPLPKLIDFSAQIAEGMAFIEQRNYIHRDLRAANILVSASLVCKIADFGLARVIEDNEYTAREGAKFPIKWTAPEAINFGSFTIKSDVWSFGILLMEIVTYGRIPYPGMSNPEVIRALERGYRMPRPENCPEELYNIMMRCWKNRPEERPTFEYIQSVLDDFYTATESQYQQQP
Sequence of CAMK1 (Q14012 whole entry): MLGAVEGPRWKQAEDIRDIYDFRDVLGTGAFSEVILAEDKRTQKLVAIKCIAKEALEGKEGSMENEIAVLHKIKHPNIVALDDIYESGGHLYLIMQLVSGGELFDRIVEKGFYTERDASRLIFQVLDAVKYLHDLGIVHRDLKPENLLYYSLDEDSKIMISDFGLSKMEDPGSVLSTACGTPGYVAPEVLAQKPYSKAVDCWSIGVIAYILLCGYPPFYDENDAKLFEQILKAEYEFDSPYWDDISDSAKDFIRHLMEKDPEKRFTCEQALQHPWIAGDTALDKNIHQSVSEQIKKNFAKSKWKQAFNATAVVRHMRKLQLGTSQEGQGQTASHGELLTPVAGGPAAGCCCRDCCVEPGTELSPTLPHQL

`COc1cccc(OC)c1C(=O)Nc1cccc(-c2nn3ccccc3c2-c2ccnc(Nc3cccc(F)c3)n2)c1` [UNC10225310A]: the inhibition at 1 µM at ADCK3 was 0%; on AURKA, 32%; at CAMK1, 19%; on CDK9, 0%; on CTK it was 21%; on GRK3, 0%. The inhibition at 1 µM at HCK is 30%; in test [1], 3%.

`O=c1cc(N2CCOCC2)nc2n(Cc3cccc(Cl)c3Cl)c(C3CC3)nn12` [UNC10225469A]: the inhibition at 1 µM is 11% at ADCK3; 0% at AURKA; 0% at CAMK1; 0% on CDK9; 0% on CTK; 0% at GRK3. In addition, the inhibition at 1 µM was found to be 0% at HCK and 6% in test [1].

Consider `Cn1cc(-c2cnc(N)c3c(-c4ccc5c(c4)CCN5C(=O)Cc4ccccc4)csc23)cn1` [UNC10225012A], for which the inhibition at 1 µM on ADCK3 came out at 7%; at AURKA it was 24%; on CAMK1, 0%; at CDK9 it was 0%; on CTK, 62%; at GRK3, 0%. The figures for the inhibition at 1 µM (on HCK; in test [1]) were 86% and 26%, respectively.

Consider `CS(=O)(=O)Cc1ccc(Nc2nccc(-c3c(-c4cccc(NC(=O)C5CCCCC5)c4)nn4ncccc34)n2)cc1` [UNC10225159A], for which the inhibition at 1 µM on ADCK3 amounted to 24%; at AURKA, 9%; on CAMK1, 0%; at CDK9, 0%; on CTK it was 38%; on GRK3 it was 0%. Besides, the inhibition at 1 µM at HCK stood at 1%; in test [1] it was 16%.

Consider `Cc1ccc(NC(=O)Nc2cccc(C(F)(F)F)c2)cc1` [UNC10225187A], for which the inhibition at 1 µM at ADCK3 is 5%; on AURKA, 0%; at CAMK1, 7%; on CDK9 it was 0%; on CTK it was 0%; at GRK3, 0%. Also, the inhibition at 1 µM (at HCK; in test [1]) was 0% throughout.

The record behind these values is PMC5540273, “Progress towards a public chemogenomic set for protein kinases and a call for contributions” (PLoS ONE, 2017).
